Experiments:
[1] = system: PDGFR; experiment: immunofluorescence of p-PDGFR in ligated carotid; assay type: in vivo, mouse; settings: media and intima of carotid arteries
Procedure: (§1) All mice used in this study were cared for under strict compliance with the Partners Institutional Animal Care and Use Committee (IACUC), regulated by the United States Public Health Service (USPHS). Carotid ligations were performed in 10 week old mice. Briefly, animals were anesthetized using intraperitoneal ketamine/xylazine (80 and 12 mg/kg, respectively) followed by a small incision in the neck to expose the carotid artery. Then the left carotid was ligated at the carotid bifurcation level using a 8-0 silk suture. At 21 days mice were sacrificed and carotids were collected for histological analysis. Approximately 98% of wild type mice developed stenotic lesions. Mice that developed thrombosis of the ligated carotid were excluded from the study (−1¬2%). Malatl knockout mice were kindly provided by Dr. David Spector (Cold Spring Harbor, N.Y.). Hdac9 flox/flox/Talgn-cre mice were generated as previously reported (10). […]
(§2) Left and right carotids were cryosectioned using OCT standard protocol and sectioning. […] Slides 1, 5, 10, and 15 were H&E stained for quantification of neointima. For quantification of the neointima, internal and external elastic lamina perimeters and medial thickness from 4 quadrants were measured and averaged using Image J software from the National Institutes of Health (NIH). […]

[2] = system: Hdac9; experiment: immunofluorescence of Hdac9 in ligated carotid; assay type: in vivo, mouse; settings: arterial media and intima of carotid arteries
Procedure: as §1, §2

[3] = system: Mmp9; experiment: immunofluorescence of Mmp9 in ligated carotid; assay type: in vivo, mouse; settings: arterial media and intima of carotid arteries
Procedure: as §1, §2

[4] = system: aortic aneurysm in Fbn1C1039G/+ mice; experiment: experimental aortic aneurysm in Fbn1C1039G/+ mice: echocardiographic aortic dimensions; assay type: in vivo, mouse; settings: Fbn1C1039G/+ mice treated from two to six months of life, drinking water
Source text: Dimensions from each animal represent averages of measurements made on still frames in systole of the maximal internal diameter of the aortic valve annulus, aortic sinuses, sinotubular junction, or ascending aorta by a cardiologist blinded to genotype. The aorta was imaged using a standard parasternal long axis view. Based on historic controls, the mean diameter of the wild type aortic root at 4 months of life is 1.73+/-0.2 mm while in our disease model (Fbn1ci°[…]/+) the mean diameter is 2.15+/-0.3 mm. […] Nair hair removal cream was used on all mice the day prior to echocardiograms. All echocardiograms were performed on awake, unsedated mice using the Visualsonics Vevo imaging system and a 30 MHz transducer. All CT images were acquired using an Inveon small animal micro CT (Siemens Medical Solutions Inc., Malven, Pa.). All mice received intravenous iodinated contrast (Isovue-370, Bracco Diagnostic Inc.) at 20 pL/min during the scan. […] Images were visualized and analyzed in OsiriX software. Cohorts of 8-week-old wild-type or Fbn1cw3gGi+ mice were treated with oral administration in drinking water of either Losartan or GSK343 for 20 weeks (FIG. 5). […] Then 200 mL of drinking water was supplemented with 250 pL of GSK343 stock solution. […] Aortic dimensions were monitored monthly by echocardiograms as mentioned above.

[5] = target: EZH1 (Homo sapiens, UniProt Q92800); settings: cited from earlier work
Sequence of EZH1 (Q92800 whole entry, species assumed): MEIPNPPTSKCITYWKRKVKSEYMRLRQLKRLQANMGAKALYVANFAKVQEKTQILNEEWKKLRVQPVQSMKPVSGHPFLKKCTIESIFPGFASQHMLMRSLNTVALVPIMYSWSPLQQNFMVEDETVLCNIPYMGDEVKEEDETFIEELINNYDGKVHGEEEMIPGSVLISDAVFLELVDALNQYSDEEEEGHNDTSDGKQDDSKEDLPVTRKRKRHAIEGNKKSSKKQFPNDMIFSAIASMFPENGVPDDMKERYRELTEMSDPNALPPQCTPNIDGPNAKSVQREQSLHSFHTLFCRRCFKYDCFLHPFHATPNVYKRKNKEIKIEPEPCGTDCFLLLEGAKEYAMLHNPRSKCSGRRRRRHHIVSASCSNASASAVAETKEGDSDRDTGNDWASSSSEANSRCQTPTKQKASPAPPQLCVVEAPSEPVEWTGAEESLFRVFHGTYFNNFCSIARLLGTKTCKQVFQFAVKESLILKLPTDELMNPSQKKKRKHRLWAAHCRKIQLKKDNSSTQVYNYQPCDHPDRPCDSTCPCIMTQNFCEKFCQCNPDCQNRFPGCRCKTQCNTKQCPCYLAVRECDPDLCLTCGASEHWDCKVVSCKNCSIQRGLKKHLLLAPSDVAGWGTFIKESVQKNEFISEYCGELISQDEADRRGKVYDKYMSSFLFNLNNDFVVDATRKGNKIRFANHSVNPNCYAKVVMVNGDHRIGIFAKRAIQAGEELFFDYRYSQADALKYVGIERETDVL
Sequence of EZH1 (O75530 whole entry partner, species assumed): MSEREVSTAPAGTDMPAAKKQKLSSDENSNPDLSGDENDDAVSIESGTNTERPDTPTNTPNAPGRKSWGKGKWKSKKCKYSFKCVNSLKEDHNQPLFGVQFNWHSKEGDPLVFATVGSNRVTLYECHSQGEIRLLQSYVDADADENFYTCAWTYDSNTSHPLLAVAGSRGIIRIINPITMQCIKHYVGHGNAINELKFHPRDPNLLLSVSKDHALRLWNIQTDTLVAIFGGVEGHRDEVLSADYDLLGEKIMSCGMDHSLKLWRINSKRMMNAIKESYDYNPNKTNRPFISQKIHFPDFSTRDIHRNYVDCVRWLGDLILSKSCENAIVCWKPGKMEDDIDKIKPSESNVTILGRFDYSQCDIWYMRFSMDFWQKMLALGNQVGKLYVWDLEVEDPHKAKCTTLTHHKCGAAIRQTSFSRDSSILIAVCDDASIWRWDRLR
Sequence of EZH1 (Q15022 whole entry partner, species assumed): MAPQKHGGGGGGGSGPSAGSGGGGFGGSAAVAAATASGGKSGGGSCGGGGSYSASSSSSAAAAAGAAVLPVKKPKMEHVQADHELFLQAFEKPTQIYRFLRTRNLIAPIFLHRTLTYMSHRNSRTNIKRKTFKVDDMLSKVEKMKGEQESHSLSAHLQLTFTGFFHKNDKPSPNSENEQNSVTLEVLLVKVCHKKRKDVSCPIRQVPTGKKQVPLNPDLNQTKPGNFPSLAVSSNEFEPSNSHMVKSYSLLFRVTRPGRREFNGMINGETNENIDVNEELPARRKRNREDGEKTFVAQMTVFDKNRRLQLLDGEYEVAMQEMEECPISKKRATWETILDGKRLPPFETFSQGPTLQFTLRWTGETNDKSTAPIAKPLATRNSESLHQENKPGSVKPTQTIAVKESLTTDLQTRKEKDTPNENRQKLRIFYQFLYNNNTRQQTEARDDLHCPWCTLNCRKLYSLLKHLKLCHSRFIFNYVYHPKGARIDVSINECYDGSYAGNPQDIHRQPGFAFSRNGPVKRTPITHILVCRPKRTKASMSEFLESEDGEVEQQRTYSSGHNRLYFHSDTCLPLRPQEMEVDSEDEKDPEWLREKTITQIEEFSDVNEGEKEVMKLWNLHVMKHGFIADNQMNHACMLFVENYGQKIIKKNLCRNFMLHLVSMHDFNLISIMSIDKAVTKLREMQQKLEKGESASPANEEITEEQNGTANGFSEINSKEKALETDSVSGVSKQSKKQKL
Sequence of EZH1 (Q09028 whole entry partner, species assumed): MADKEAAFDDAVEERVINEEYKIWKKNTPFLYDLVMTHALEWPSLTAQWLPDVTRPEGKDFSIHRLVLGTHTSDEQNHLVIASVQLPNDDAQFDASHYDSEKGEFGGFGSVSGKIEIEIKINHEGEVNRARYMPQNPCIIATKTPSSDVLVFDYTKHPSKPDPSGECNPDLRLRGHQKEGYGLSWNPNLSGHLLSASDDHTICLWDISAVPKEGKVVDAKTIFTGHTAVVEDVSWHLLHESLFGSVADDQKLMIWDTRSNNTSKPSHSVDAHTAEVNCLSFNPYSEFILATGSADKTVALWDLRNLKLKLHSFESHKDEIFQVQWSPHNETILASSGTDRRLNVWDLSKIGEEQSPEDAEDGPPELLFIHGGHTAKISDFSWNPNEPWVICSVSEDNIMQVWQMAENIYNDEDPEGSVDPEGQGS
Sequence of EZH1 (Q6ZN18 whole entry partner, species assumed): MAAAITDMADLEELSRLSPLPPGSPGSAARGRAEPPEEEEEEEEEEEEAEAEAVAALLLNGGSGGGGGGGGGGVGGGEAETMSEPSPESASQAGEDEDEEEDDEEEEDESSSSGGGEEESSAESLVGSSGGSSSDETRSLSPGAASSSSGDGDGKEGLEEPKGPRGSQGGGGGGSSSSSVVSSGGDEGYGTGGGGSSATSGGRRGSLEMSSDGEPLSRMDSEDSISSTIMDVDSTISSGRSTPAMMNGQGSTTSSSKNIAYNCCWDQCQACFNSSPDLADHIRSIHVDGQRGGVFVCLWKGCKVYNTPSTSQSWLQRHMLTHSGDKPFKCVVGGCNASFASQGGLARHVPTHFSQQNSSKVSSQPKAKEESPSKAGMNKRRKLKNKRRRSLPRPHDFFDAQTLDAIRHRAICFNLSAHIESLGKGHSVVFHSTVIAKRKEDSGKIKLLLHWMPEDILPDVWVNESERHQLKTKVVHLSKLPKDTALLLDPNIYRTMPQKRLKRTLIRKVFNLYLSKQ

**Q.** For `CCCc1cc(C)[nH]c(=O)c1CNC(=O)c1cc(-c2ccnc(N3CCN(C)CC3)c2)cc2c1cnn2C(C)C` [GSK343], which “phosphorylation of PDGFR” value [1] is on record?
**A.** dramatic reduction

**Q.** What about the “accumulation of Hdac9” value [2] of the same compound?
**A.** decreased accumulation

**Q.** What about the “accumulation of Mmp9” value [3] of the same compound?
**A.** decreased accumulation

**Q.** What about the aortic dimensions [4] of the same compound?
**A.** ability to improve aortic dimensions

**Q.** And the “selectivity for EZH2 vs. EZH1” value [5]?
**A.** 60 fold

From patent US11938129B2, “Methods and compositions for the treatment of vascular disease” (THE GENERAL HOSPITAL CORPORATION, priority 2018, dated 2024)
